# Assay results reported in patent US20030068282A1, “Composition” (Unilever Home & Personal Care USA, Division of Conopco, Inc., priority 2001, published 2003).
# Test: salivary sediment model: amount of n-octyl paraben delivered from toothpaste to salivary sediment
# Type: in vitro ADME
# Conditions: for amount of paraben delivered, Rep 1 / amount of paraben delivered, Rep 2 / amount of paraben delivered, Mean: toothpaste with 1.1% n-octyl paraben; for amount of paraben delivered, Rep 1 / amount of paraben delivered, Rep 2: ex-vivo samples; for amount of paraben delivered, Mean: mean of two repetitions
# Procedure: Standard toothpastes comprising SLS and n-octyl paraben were tested in a salivary sediment model similar to that described by R. L. Wijeijweera and I. Kleinberg in Archs. Oral Biol., Vol. 34, No. 1, 1989, pages 43-53, using ex-vivo samples and measuring the amount of n-octyl paraben delivered to the salivary sediment.
# Two repetitions were carried out for each SLS level in a paste comprising 1.1% n-octyl paraben. The values represnet the amount (ppm per ml sediment suspension) of paraben delivered.
structure (smiles),measurement,setting,value
CCCCCCCCOC(=O)c1ccc(O)cc1 [n-octyl paraben],"level of paraben delivered, comparison between SLS levels",SLS levels 1.4 and 1.6% compared with 1.8%,greater at SLS levels ranging at 1.4 and 1.6% than for 1.8%
same,"amount of paraben delivered, Rep 1",1.4% SLS in base,60.080 ppm per ml sediment suspension
same,"amount of paraben delivered, Rep 2",1.4% SLS in base,61.657 ppm per ml sediment suspension
same,"amount of paraben delivered, Mean",1.4% SLS in base,60.869 ppm per ml sediment suspension
same,"amount of paraben delivered, Rep 1",1.6% SLS in base,59.534 ppm per ml sediment suspension
same,"amount of paraben delivered, Rep 2",1.6% SLS in base,63.775 ppm per ml sediment suspension
same,"amount of paraben delivered, Mean",1.6% SLS in base,61.654 ppm per ml sediment suspension
same,"amount of paraben delivered, Rep 1",1.8% SLS in base,48.790 ppm per ml sediment suspension
same,"amount of paraben delivered, Rep 2",1.8% SLS in base,48.352 ppm per ml sediment suspension
same,"amount of paraben delivered, Mean",1.8% SLS in base,48.571 ppm per ml sediment suspension
